# Results reported in ChEMBL document CHEMBL2396528, “Synthesis of new conjugated coumarin-benzimidazole hybrids and their anticancer activity” (2013).
# Key:
# Format in all cases: functional
# MDA-MB-468 = experiment: Cytotoxicity against human MDA-MB-468 cells assessed as growth inhibition at 10 uM after 48 hrs by SRB assay relative to control; conditions: MDA-MB-468, 48 h, read-out: GI
# BT-549 = experiment: Cytotoxicity against human BT549 cells assessed as growth inhibition at 10 uM after 48 hrs by SRB assay relative to control; conditions: BT-549, 48 h, read-out: GI
# Hs-578T = experiment: Cytotoxicity against human Hs578T cells assessed as growth inhibition at 10 uM after 48 hrs by SRB assay relative to control; conditions: read-out: GI
# MDA-MB-231 = experiment: Cytotoxicity against human MDA-MB-231 cells assessed as growth inhibition at 10 uM after 48 hrs by SRB assay relative to control; conditions: MDA-MB-231, 48 h, read-out: GI
# MCF7 = experiment: Cytotoxicity against human MCF7 cells assessed as growth inhibition at 10 uM after 48 hrs by SRB assay relative to control; conditions: MCF7, 48 h, read-out: GI
# DU-145 = experiment: Cytotoxicity against human DU145 cells assessed as growth inhibition at 10 uM after 48 hrs by SRB assay relative to control; conditions: DU-145, 48 h, read-out: GI
# UO-31 = experiment: Cytotoxicity against human UO31 cells assessed as growth inhibition at 10 uM after 48 hrs by SRB assay relative to control; conditions: UO-31, 48 h, read-out: GI
# CAKI-1 = experiment: Cytotoxicity against human Caki1 cells assessed as growth inhibition at 10 uM after 48 hrs by SRB assay relative to control; conditions: CAKI-1, 48 h, read-out: GI
# SK-OV-3 = experiment: Cytotoxicity against human SKOV3 cells assessed as growth inhibition at 10 uM after 48 hrs by SRB assay relative to control; conditions: SK-OV-3, 48 h, read-out: GI
# A498 = experiment: Cytotoxicity against human A498 cells assessed as growth inhibition at 10 uM after 48 hrs by SRB assay relative to control; conditions: A498, 48 h, read-out: GI
# OVCAR-8 = experiment: Cytotoxicity against human OVCAR8 cells assessed as growth inhibition at 10 uM after 48 hrs by SRB assay relative to control; conditions: OVCAR-8, 48 h, read-out: GI
# OVCAR-5 = experiment: Cytotoxicity against human OVCAR5 cells assessed as growth inhibition at 10 uM after 48 hrs by SRB assay relative to control; conditions: OVCAR-5, 48 h, read-out: GI
# OVCAR-3 = experiment: Cytotoxicity against human OVCAR3 cells assessed as growth inhibition at 10 uM after 48 hrs by SRB assay relative to control; conditions: OVCAR-3, 48 h, read-out: GI
# UACC-62 = experiment: Cytotoxicity against human UACC62 cells assessed as growth inhibition at 10 uM after 48 hrs by SRB assay relative to control; conditions: UACC-62, 48 h, read-out: GI
# UACC-257 = experiment: Cytotoxicity against human UACC257 cells assessed as growth inhibition at 10 uM after 48 hrs by SRB assay relative to control; conditions: UACC-257, 48 h, read-out: GI
# SK-MEL-5 = experiment: Cytotoxicity against human SK-MEL-5 cells assessed as growth inhibition at 10 uM after 48 hrs by SRB assay relative to control; conditions: SK-MEL-5, 48 h, read-out: GI
# SK-MEL-28 = experiment: Cytotoxicity against human SK-MEL-28 cells assessed as growth inhibition at 10 uM after 48 hrs by SRB assay relative to control; conditions: SK-MEL-28, 48 h, read-out: GI
# M14 = experiment: Cytotoxicity against human M14 cells assessed as growth inhibition at 10 uM after 48 hrs by SRB assay relative to control; conditions: M14, 48 h, read-out: GI
# SK-MEL-2 = experiment: Cytotoxicity against human SK-MEL-2 cells assessed as growth inhibition at 10 uM after 48 hrs by SRB assay relative to control; conditions: SK-MEL-2, 48 h, read-out: GI
# U-251 = experiment: Cytotoxicity against human U251 cells assessed as growth inhibition at 10 uM after 48 hrs by SRB assay relative to control; conditions: U-251, 48 h, read-out: GI
# SNB-75 = experiment: Cytotoxicity against human SNB75 cells assessed as growth inhibition at 10 uM after 48 hrs by SRB assay relative to control; conditions: SNB-75, 48 h, read-out: GI
# SF-539 = experiment: Cytotoxicity against human SF539 cells assessed as growth inhibition at 10 uM after 48 hrs by SRB assay relative to control; conditions: SF-539, 48 h, read-out: GI
# SW-620 = experiment: Cytotoxicity against human SW620 cells assessed as growth inhibition at 10 uM after 48 hrs by SRB assay relative to control; conditions: SW-620, 48 h, read-out: GI
# HCC 2998 = experiment: Cytotoxicity against human HCC2998 cells assessed as growth inhibition at 10 uM after 48 hrs by SRB assay relative to control; conditions: HCC 2998, 48 h, read-out: GI
# HCT-116 = experiment: Cytotoxicity against human HCT116 cells assessed as growth inhibition at 10 uM after 48 hrs by SRB assay relative to control; conditions: HCT-116, 48 h, read-out: GI
# NCI-H522 = experiment: Cytotoxicity against human NCI-H522 cells assessed as growth inhibition at 10 uM after 48 hrs by SRB assay relative to control; conditions: NCI-H522, 48 h, read-out: GI
# NCI-H23 = experiment: Cytotoxicity against human NCI-H23 cells assessed as growth inhibition at 10 uM after 48 hrs by SRB assay relative to control; conditions: NCI-H23, 48 h, read-out: GI
# NCI-H226 = experiment: Cytotoxicity against human NCI-H226 cells assessed as growth inhibition at 10 uM after 48 hrs by SRB assay relative to control; conditions: NCI-H226, 48 h, read-out: GI
# HOP-62 = experiment: Cytotoxicity against human HOP62 cells assessed as growth inhibition at 10 uM after 48 hrs by SRB assay relative to control; conditions: HOP-62, 48 h, read-out: GI
# HOP-92 = experiment: Cytotoxicity against human HOP92 cells assessed as growth inhibition at 10 uM after 48 hrs by SRB assay relative to control; conditions: HOP-92, 48 h, read-out: GI
# SR = experiment: Cytotoxicity against human SR cells assessed as growth inhibition at 10 uM after 48 hrs by SRB assay relative to control; conditions: read-out: GI
# MOLT-4 = experiment: Cytotoxicity against human MOLT4 cells assessed as growth inhibition at 10 uM after 48 hrs by SRB assay relative to control; conditions: MOLT-4, 48 h, read-out: GI
# HL-60(TB) = experiment: Cytotoxicity against human HL-60(TB) cells assessed as growth inhibition at 10 uM after 48 hrs by SRB assay relative to control; conditions: HL-60, 48 h, read-out: GI
# CCRF-CEM = experiment: Cytotoxicity against human CCRF-CEM cells assessed as growth inhibition at 10 uM after 48 hrs by SRB assay relative to control; conditions: read-out: GI
Structure (SMILES),inhibition of growth at 10 µM (MDA-MB-468) [%],inhibition of growth at 10 µM (BT-549) [%],inhibition of growth at 10 µM (Hs-578T) [%],inhibition of growth at 10 µM (MDA-MB-231) [%],inhibition of growth at 10 µM (MCF7) [%],inhibition of growth at 10 µM (DU-145) [%],inhibition of growth at 10 µM (UO-31) [%],inhibition of growth at 10 µM (CAKI-1) [%],inhibition of growth at 10 µM (SK-OV-3) [%],inhibition of growth at 10 µM (A498) [%],inhibition of growth at 10 µM (OVCAR-8) [%],inhibition of growth at 10 µM (OVCAR-5) [%],inhibition of growth at 10 µM (OVCAR-3) [%],inhibition of growth at 10 µM (UACC-62) [%],inhibition of growth at 10 µM (UACC-257) [%],inhibition of growth at 10 µM (SK-MEL-5) [%],inhibition of growth at 10 µM (SK-MEL-28) [%],inhibition of growth at 10 µM (M14) [%],inhibition of growth at 10 µM (SK-MEL-2) [%],inhibition of growth at 10 µM (U-251) [%],also measured
NCCNc1ccc2cc(-c3nc4ccccc4[nH]3)c(=O)oc2c1,< 20,< 20,< 20,34,< 20,< 20,< 20,< 20,< 20,< 20,< 20,< 20,< 20,< 20,< 20,< 20,< 20,< 20,< 20,< 20,inhibition of growth at 10 µM (SNB-75): < 20%; inhibition of growth at 10 µM (SF-539): < 20%; inhibition of growth at 10 µM (SW-620): < 20%; inhibition of growth at 10 µM (HCC 2998): < 20%; inhibition of growth at 10 µM (HCT-116): < 20%; inhibition of growth at 10 µM (NCI-H522): < 20%; inhibition of growth at 10 µM (NCI-H23): < 20%; inhibition of growth at 10 µM (NCI-H226): < 20%; inhibition of growth at 10 µM (HOP-62): < 20%; inhibition of growth at 10 µM (HOP-92): < 20%; inhibition of growth at 10 µM (SR): < 20%; inhibition of growth at 10 µM (MOLT-4): < 20%; inhibition of growth at 10 µM (HL-60(TB)): < 20%; inhibition of growth at 10 µM (CCRF-CEM): < 20%
O=c1oc2cc(NCCO)ccc2cc1-c1nc2ccccc2[nH]1,48.4,33.1,< 20,58.9,62.1,< 20,41.9,22.4,< 20,< 20,31.4,< 20,32.8,27.2,28,35.8,< 20,25.4,< 20,20.7,inhibition of growth at 10 µM (SNB-75): < 20%; inhibition of growth at 10 µM (SF-539): 25.9%; inhibition of growth at 10 µM (SW-620): 21.4%; inhibition of growth at 10 µM (HCC 2998): < 20%; inhibition of growth at 10 µM (HCT-116): 62.2%; inhibition of growth at 10 µM (NCI-H522): 23.7%; inhibition of growth at 10 µM (NCI-H23): 32.9%; inhibition of growth at 10 µM (NCI-H226): 30%; inhibition of growth at 10 µM (HOP-62): 24.8%; inhibition of growth at 10 µM (HOP-92): < 20%; inhibition of growth at 10 µM (SR): < 20%; inhibition of growth at 10 µM (MOLT-4): 38%; inhibition of growth at 10 µM (HL-60(TB)): 80.5%; inhibition of growth at 10 µM (CCRF-CEM): 72.5%
